Measurements taken from PubChem BioAssay AID977619 (Broad Institute, 2014).
Values joined by “and” are separate entries in the source; they are usually repeats but may differ in a detail not shown here. Equal values may be shown once. Active and inactive are the calls of the source.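 The calls were made as follows: active = viability signal falls, with AC50 at or below a set limit tied to the top tested dose; inconclusive = flat curve with moderate signal loss, or poor fit; inactive = the rest, including rising signal.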

System: not listed separately
Assay: viability loss in HepG2 hepatoma cells – cell-based, CellTiter-Glo luminescence, dry powder, set 13, cytotoxicity control, dose response (AID 977619)
Conditions: HepG2 viability, CellTiter-Glo ATP luminescence, 72 h; at 30 µM (top of the series)

Compound	activity change, negative = cytotoxicity
CN(C)CCCN(Cc1cc2ccccc2[nH]c1=O)C(=O)Nc1ccccc1	-20.2% (inactive)
CCN(CC)c1ccc(S(=O)(=O)N(C)C)cc1C(=O)Nc1ncc(C)s1	-14.5% (inactive)
CN(C)S(=O)(=O)c1ccc(N2CCCC2)c(C(=O)Nc2ccncc2)c1	-16.4% (inactive)
CN(C)CCCN(Cc1cc2ccccc2[nH]c1=O)C(=O)NCc1ccccc1	-20.2% (inactive)
CN(C)S(=O)(=O)c1ccc(N2CCCC2)c(C(=O)Nc2cccc(F)c2)c1	-10% (inactive)
CN(C)S(=O)(=O)c1ccc(N2CCCC2)c(C(=O)Nc2ccccc2)c1	-16.8% (inactive)
CN(C)S(=O)(=O)c1ccc(N2CCCC2)c(C(=O)Nc2cccnc2)c1	-8.96% (inactive)
Cc1nc(NC(=O)c2cc(S(=O)(=O)N(C)C)ccc2N2CCCC2)n[nH]1	7.89% (inactive)
Cc1cnc(NC(=O)c2cc(S(=O)(=O)N3CCCCC3)ccc2N2CCCC2)s1	-1.49% (inactive)
Cc1cnc(NC(=O)c2cc(S(=O)(=O)N(CC(C)C)CC(C)C)ccc2N2CCCC2)s1	2.42% (inactive)
COc1ccc2sc(NC(=O)c3cc(S(=O)(=O)N(C)C)ccc3N3CCCC3)nc2c1	12.7% (inactive)
Cc1cnc(NC(=O)c2cccc(S(=O)(=O)N(C)C)c2)s1	0.262% (inactive)
CN(C)S(=O)(=O)c1ccc(N2CCCC2)c(C(=O)Nc2nccs2)c1	-14.2% (inactive)
COc1cccc2sc(NC(=O)c3cc(S(=O)(=O)N(C)C)ccc3N3CCCC3)nc12	-0.843% (inactive)
Cc1nnc(NC(=O)c2cc(S(=O)(=O)N(C)C)ccc2N2CCCC2)s1	-4.85% (inactive)
Cc1cnc(NC(=O)c2cc(S(=O)(=O)N3CCNCC3)ccc2N2CCCC2)s1	-16.2% (inactive)
Cc1cnc(NC(=O)c2cc(S(=O)(=O)N(C)C)ccc2C2CCCC2)s1	1.56% (inactive)
Cc1cnc(NC(=O)c2cc(S(=O)(=O)N(C)C)ccc2N2CCC2)s1	-16.2% (inactive)
CN(C)S(=O)(=O)c1ccc(N2CCCC2)c(C(=O)NC2CCCCC2)c1	-17.5% (inactive)

Compound	activity change, negative = cytotoxicity
CN(C)S(=O)(=O)c1ccc(N2CCCC2)c(C(=O)Nc2ccc(Br)cc2)c1	3.71% (inactive)
CN(C)S(=O)(=O)c1ccc(N2CCCC2)c(C(=O)Nc2ccccc2Cl)c1	0.028% (inactive)
Cc1cnc(NC(=O)c2cc(S(=O)(=O)N3CCOCC3)ccc2N2CCCC2)s1	-27.5% (inactive)
CN(C)C(=O)c1cc(S(=O)(=O)N(C)C)ccc1N1CCCC1	-5.71% (inactive)
CN(C)S(=O)(=O)c1ccc(N2CCCC2)c(C(=O)N2CCOCC2)c1	-23.2% (inactive)
CN(C)S(=O)(=O)c1ccc(N2CCCC2)c(C(=O)Nc2ccccc2F)c1	0.657% (inactive)
Cc1cnc(NC(=O)c2cc(S(=O)(=O)N(C)C)ccc2N2CCCCC2)s1	-24.5% (inactive)
CN(C)S(=O)(=O)c1ccc(N2CCCC2)c(C(=O)Nc2nc3ccccc3s2)c1	-28% (inactive)
COc1ccccc1NC(=O)c1cc(S(=O)(=O)N(C)C)ccc1N1CCCC1	-1.12% (inactive)
Cc1ccccc1NC(=O)c1cc(S(=O)(=O)N(C)C)ccc1N1CCCC1	-8.5% (inactive)
Cc1cnc(NC(=O)c2cc(S(=O)(=O)NCc3ccccc3)ccc2N2CCCC2)s1	-8.91% (inactive)
CCN(CC)S(=O)(=O)c1ccc(N2CCCC2)c(C(=O)Nc2ncc(C)s2)c1	-6.49% (inactive)
Cc1cnc(NC(=O)c2cc(S(=O)(=O)N(C)C)ccc2N(C)C)s1	-8.52% (inactive)
Cc1ccc(NC(=O)c2cc(S(=O)(=O)N(C)C)ccc2N2CCCC2)cc1	-24% (inactive)
COc1ccc(NC(=O)c2cc(S(=O)(=O)N(C)C)ccc2N2CCCC2)cc1	-5.62% (inactive)
COc1ccc2nc(NC(=O)c3cc(S(=O)(=O)N(C)C)ccc3N3CCCC3)sc2c1	-15% (inactive)
Cc1cnc(NC(=O)c2cc(S(=O)(=O)N(C)c3ccccc3)ccc2N2CCCC2)s1	2.13% (inactive)
Cc1cnc(NC(=O)c2cc(S(=O)(=O)N(C)C)ccc2N2CCCC2)s1	-11% (inactive) and -24.4% (inactive)
Cc1cnc(NC(=O)c2cc(S(=O)(=O)N(C)C)ccc2N2CCNCC2)s1	2.09% (inactive)

System: HepG2 viability, CellTiter-Glo ATP luminescence, 72 h
Assay: as above
Conditions: not given

Compound	AC50
Cc1cnc(NC(=O)c2cc(S(=O)(=O)N3CCCC3)ccc2N2CCCC2)s1	> 60 µM (inactive)
Cc1csc(NC(=O)c2cc(S(=O)(=O)N(C)C)ccc2N2CCCC2)n1	> 60 µM (inactive)
